Experimental data reported in ChEMBL document CHEMBL6087426, “Design, synthesis and bioactivity evaluation of cinnamic acid derivatives as potential anti-inflammatory agents against LPS-induced acute lung injury” (Bioorg Med Chem Lett, 2025).
Calls of active or inactive are those of the source. No cut-off for these calls is given here.

Assays:
J774.A1 [1] = assay: Anti-inflammatory activity against mouse J774.A1 cells assessed as inhibition of LPS-induced IL-6 production at 10 uM preincubated for 30 mins followed by LPS stimulation for 24 hrs by ELISA relative to control; type: functional; details: time 24.5 hrs
J774.A1 [2] = assay: Cytotoxicity against mouse J774.A1 cells assessed as cell survival at 10 uM by MTT assay; type: toxicity, cell-based; details: j774.a1, 10 µM
Mus musculus [3] = assay: Anti-inflammatory activity in C57BL/6 mouse assessed as decrease in LPS-induced TNF-alpha level in BALF at 20 mg/kg pretreated for 30 mins followed by LPS stimulation for 6 hrs by ELISA; type: functional, organism-based; details: time 6.5 hrs
Mus musculus [4] = assay: Anti-inflammatory activity in C57BL/6 mouse assessed as decrease in LPS-induced total protein level in BALF at 20 mg/kg pretreated for 30 mins followed by LPS stimulation for 6 hrs; type: functional, organism-based; details: time 6.5 hrs
Mus musculus [5] = assay: Anti-inflammatory activity in C57BL/6 mouse assessed as decrease in LPS-induced TNF-alpha level in serum at 20 mg/kg pretreated for 30 mins followed by LPS stimulation for 6 hrs by ELISA; type: functional, organism-based; details: time 6.5 hrs
Mus musculus [6] = assay: Anti-inflammatory activity in C57BL/6 mouse assessed as decrease in LPS-induced inflammatory infiltration in lung tissue at 20 mg/kg pretreated for 30 mins followed by LPS stimulation for 6 hrs by H and E staining based analysis; type: functional, organism-based; details: time 6.5 hrs
Mus musculus [7] = assay: Anti-inflammatory activity in C57BL/6 mouse assessed as decrease in LPS-induced wet to dry ratio in lung tissue at 20 mg/kg pretreated for 30 mins followed by LPS stimulation for 6 hrs; type: functional, organism-based; details: time 6.5 hrs
J774.A1 [8] = assay: Anti-inflammatory activity against mouse J774.A1 cells assessed as inhibition of LPS-induced IL-6 production preincubated for 30 mins followed by LPS stimulation for 24 hrs by ELISA; type: functional, cell-based
Mus musculus [9] = assay: Anti-inflammatory activity in C57BL/6 mouse assessed as decrease in LPS-induced destruction in lung tissue at 20 mg/kg pretreated for 30 mins followed by LPS stimulation for 6 hrs by H and E staining based analysis; type: functional, organism-based; details: time 6.5 hrs
Mus musculus [10] = assay: Anti-inflammatory activity in C57BL/6 mouse assessed as decrease in LPS-induced thickened alveolar septa in lung tissue at 20 mg/kg pretreated for 30 mins followed by LPS stimulation for 6 hrs by H and E staining based analysis; type: functional, organism-based; details: time 6.5 hrs
Mus musculus [11] = assay: Anti-inflammatory activity in C57BL/6 mouse assessed as decrease in LPS-induced macrophage infiltration in lung tissue at 20 mg/kg pretreated for 30 mins followed by LPS stimulation for 6 hrs by IHC analysis; type: functional, organism-based; details: time 6.5 hrs
Mus musculus [12] = assay: Anti-inflammatory activity in C57BL/6 mouse assessed as decrease in LPS-induced pulmonary congestion in lung tissue at 20 mg/kg pretreated for 30 mins followed by LPS stimulation for 6 hrs by H and E staining based analysis; type: functional, organism-based; details: time 6.5 hrs
Mus musculus [13] = assay: Anti-inflammatory activity in C57BL/6 mouse assessed as decrease in LPS-induced IL-6 level in serum at 20 mg/kg pretreated for 30 mins followed by LPS stimulation for 6 hrs by ELISA; type: functional, organism-based; details: time 6.5 hrs
Mus musculus [14] = assay: Anti-inflammatory activity in C57BL/6 mouse assessed as decrease in LPS-induced IL-6 level in BALF at 20 mg/kg pretreated for 30 mins followed by LPS stimulation for 6 hrs by ELISA; type: functional, organism-based; details: time 6.5 hrs
Mus musculus [15] = assay: Anti-inflammatory activity in C57BL/6 mouse assessed as decrease in LPS-induced interstitial edema in lung tissue at 20 mg/kg pretreated for 30 mins followed by LPS stimulation for 6 hrs by H and E staining based analysis; type: functional, organism-based; details: time 6.5 hrs

Compound `COc1ccc(-c2csc(NC(=O)c3cccc(F)c3)n2)cc1OC` has an inhibition at 10 µM (J774.A1 [1]) of 19.5%.
Compound `COc1ccc(-c2csc(NC(=O)c3ccc(F)cc3Cl)n2)cc1OC` has an inhibition at 10 µM (J774.A1 [1]) of 23.3%.
Compound `O=C(/C=C/c1ccccc1)Nc1ncc(-c2ccc(C3CCCCC3)cc2)s1` has an inhibition at 10 µM (J774.A1 [1]) of 51.9%.
With `COc1cc(-c2cnc(NC(=O)/C=C/c3ccccc3)s2)cc(OC)c1OC` the Activity (J774.A1 [2]) was “Non-toxic” and the inhibition at 10 µM (J774.A1 [1]) was 72.7%.
Work on `COc1ccc(-c2cnc(NC(=O)/C=C/c3ccccc3)s2)cc1OC` yielded an inhibition at 10 µM (J774.A1 [1]) of 53%.
In the case of `O=C(O)/C=C/c1ccccc1` [CINNAMIC ACID], the inhibition at 10 µM (J774.A1 [1]) is reported as 26.4%.
`CCOc1ccc(-c2cnc(NC(=O)/C=C/c3ccccc3)s2)cc1` gave an inhibition at 10 µM (J774.A1 [1]) of 37.6%.
`COc1ccc(-c2csc(NC(=O)c3ccc(Cl)c([N+](=O)[O-])c3)n2)cc1OC` was tested, and the Activity (J774.A1 [2]) was “Toxic” and the inhibition at 10 µM (J774.A1 [1]) was 64.1%.
With `COc1ccc(-c2csc(NC(=O)c3ccc(C)cc3)n2)cc1OC` the inhibition at 10 µM (J774.A1 [1]) was 38.8%.
`O=C(/C=C/c1ccccc1)Nc1ncc(-c2ccc(Br)cc2)s1` gave an inhibition at 10 µM (J774.A1 [1]) of 21.6%.
With `COc1ccc(-c2csc(NC(=O)c3cccc(Br)c3)n2)cc1OC` the inhibition at 10 µM (J774.A1 [1]) was 19.8%.
`O=C(/C=C/c1ccccc1)Nc1ncc(-c2cccc([N+](=O)[O-])c2)s1` showed an inhibition at 10 µM (J774.A1 [1]) of 36.5%.
For `O=C(/C=C/c1ccccc1)Nc1nc2ccccc2s1`, the Activity (Mus musculus [3]) was “Active”, the Activity (J774.A1 [2]) was “Non-toxic” and the Activity (Mus musculus [4]) was “Active”. For the same compound, the inhibition at 10 µM (J774.A1 [1]) was 79.6%, the Activity (Mus musculus [5]) was “Active” and the Activity (Mus musculus [6]) was “Active”. The Activity (Mus musculus [7]) was “Active”, the IC50 (J774.A1 [8]) was 1060 nM and the inhibition (J774.A1 [8]; dose 1.25-10 µM, time 24.5 hrs) was “Dose-dependent-effect”. The Activity (Mus musculus [9]) was “Active”, the Activity (Mus musculus [10]) was “Active” and the Activity (Mus musculus [11]) was “Active”. The Activity (Mus musculus [12]) was “Active”, the Activity (Mus musculus [13]) was “Active” and the Activity (Mus musculus [14]) was “Active”. For the same compound, the Activity (Mus musculus [15]) was “Active”.
In the case of `C[C@@H]1C[C@H]2[C@@H]3CCC4=CC(=O)C=C[C@]4(C)[C@@]3(F)[C@@H](O)C[C@]2(C)[C@@]1(O)C(=O)CO`, the Activity (Mus musculus [3]) is reported as “Active”, the Activity (Mus musculus [4]) is reported as “Active” and the Activity (Mus musculus [5]) is reported as “Active”. The Activity (Mus musculus [7]) was “Active”, the Activity (Mus musculus [11]) was “Active” and the Activity (Mus musculus [13]) was “Active”. The Activity (Mus musculus [14]) was “Active”.
Work on `COc1ccc(-c2csc(NC(=O)c3ccccc3C)n2)cc1OC` yielded an inhibition at 10 µM (J774.A1 [1]) of 36.8%.
`COc1ccc(-c2csc(NC(=O)c3ccc(F)cc3)n2)cc1OC` showed an inhibition at 10 µM (J774.A1 [1]) of 51.2%.
